Counter-ions that a name gives are not always drawn.
Tested on: T1, primary mouse cortical neurons
T1 construct: primary cortical neurons, DIV 10
Assay: cells
Set-up: Protection from NMDA-induced (30 uM, 10 min) neuronal death; Hoechst nuclear morphology by automated microscopy
Settings: Cortical neurone, 20 h, read-out: % inhibition, inhibition of NMDA-induced cell death (protection score), 30 min pre-treatment
Description: On DIV 10, compounds were applied to the cells reaching an end concentration of 10 μM. Cells were incubated for 30 min at 37 °C, 5% CO2 before adding NMDA (30 μM). Cells were incubated for another 10 min in the incubator, then washed twice with defined minimal medium containing 10 μM of the respective compound and incubated for an additional 20 h before readout. Untreated (no NMDA) and NMDA-only stimulated wells were treated with 0.1% DMSO. […] After 15 min of incubation at room temperature, cells were washed twice with phosphate buffered saline. […] Dead neurons were identified by amorphous or shrunken nuclei using CellProfiler and CellProfiler Analyst software. For all cell death analyses the experimental unit (N) is defined as an independent experiment using an independent neuronal preparation. For each independent experiment, data from 3 replicate wells (i.e., from 36 images), representing an average of 3000 cells was analyzed per condition. The survival rate S was calculated by dividing the number of living cells by the total number of cells. The survival rate was then used to calculate the protection score according to Scompound−Svehicle/Suntreated−Svehicle×100=%protection , where ‘compound’ refers to compound + NMDA treatment, ‘vehicle’ refers to vehicle + NMDA treatment, and ‘untreated’ refers to DMSO control. […] As a proof of principle, we next used our assay to screen two commercially available drug libraries. In these screens, primary cortical cells were incubated with test compounds at 10 μM concentration for 30 min before addition of 30 μM NMDA. After 10 min NMDA treatment, cells were washed with fresh medium and kept in the presence of test compounds for 20 h until assessment of cell viability. […] This library covers structurally diverse drugs from several fields such as oncology, cardiology, immunology, and neurology/psychiatry.

| Structure (SMILES) | inhibition at 10 µM [%] |
| --- | --- |
| CCCC1O[C@@H]2C[C@H]3[C@@H]4CCC5=CC(=O)C=C[C@]5(C)[C@H]4[C@@H](O)C[C@]3(C)[C@]2(C(=O)CO)O1 (stereo partly drawn) [Budesonide] | -9.49 |
| C[C@]12C=CC(=O)C=C1CC[C@@H]1[C@@H]2[C@@H](O)C[C@@]2(C)[C@H]1CC[C@]2(O)C(=O)CO [Prednisolone (Hydroretrocortine)] | 4.33 |
| O=C1C=CC[C@@H]2[C@H]3CCCN4CCC[C@@H](CN12)[C@@H]34 [Sophocarpine] | 0.911 |
| CN(C)CCOc1ccc(/C(=C(/CCCl)c2ccccc2)c2ccccc2)cc1 [Toremifene Citrate (Fareston, Acapodene)] | -2.81 |
| O=C(OC1C[C@H]2CC[C@@H](C1)[N+]21CCCC1)C(O)(c1ccccc1)c1ccccc1 (stereo partly drawn) [Trospium chloride (Sanctura)] | 7.49 |
| COc1cc2c(cc1Cc1cccc(Cl)c1F)c(=O)c(C(=O)O)cn2[C@H](CO)C(C)C [Elvitegravir (GS-9137)] | 89.3 |
| c1ccc([C@H]2CN3CCSC3=N2)cc1 [Levamisole Hydrochloride (Ergamisol)] | 19.8 |
| O=c1c2ccccc2nc2n1CCc1c-2[nH]c2ccccc12 [Rutaecarpine (Rutecarpine)] | 5.35 |
| CC(=O)N1CCN(c2ccc(OC[C@@H]3CO[C@@](Cn4ccnc4)(c4ccc(Cl)cc4Cl)O3)cc2)CC1 (racemic) [Ketoconazole] | -15.9 |
| COc1ccc([C@@H]2CC(=O)c3c(O)cc(O[C@@H]4O[C@H](CO)[C@@H](O)[C@H](O)[C@H]4O[C@@H]4O[C@@H](C)[C@H](O)[C@@H](O)[C@H]4O)cc3O2)cc1O [Neohesperidin] | 4.46 |
| COc1cc2c(cc1O)CC[C@@H]1[C@@H]2CC[C@]2(C)[C@@H](O)CC[C@@H]12 [2-Methoxyestradiol] | 19.8 |
| Cn1cnc2c1c(=O)[nH]c(=O)n2C [Theobromine (3,7-Dimethylxanthine)] | 0.993 |
| CNCCC(Oc1ccc(C(F)(F)F)cc1)c1ccccc1 (stereo not drawn) [Fluoxetine HCl] | -11.1 |
| COC(=O)[C@@H]1CC2=CC(=O)CC[C@]2(C)[C@@]23O[C@@H]2C[C@@]2(C)[C@@H](CC[C@@]24CCC(=O)O4)[C@H]13 [Eplerenone] | 6.59 |
| C[C@@H](CN1CC(=O)NC(=O)C1)N1CC(=O)NC(=O)C1 [Dexrazoxane Hydrochloride] | -16.2 |
| CCCCC(=O)N(Cc1ccc(-c2ccccc2-c2nn[nH]n2)cc1)[C@H](C(=O)O)C(C)C [Valsartan (Diovan)] | -0.714 |
| COc1c(C)c2c(c(O)c1C/C=C(\C)CCC(=O)O)C(=O)OC2 [Mycophenolic (Mycophenolate)] | -10.2 |
| O=C(CCc1ccc(O)cc1)c1c(O)cc(O)cc1O [Phloretin (Dihydronaringenin)] | -1.62 |
| C[C@H]1COc2c(N3CCN(C)CC3)c(F)cc3c(=O)c(C(=O)O)cn1c23 [Levofloxacin (Levaquin)] | -4.92 |
| C#C[C@]1(O)CC[C@H]2[C@@H]3CCC4=CC(=O)CC[C@@H]4[C@H]3CC[C@@]21CC [Levonorgestrel (Levonelle)] | -1.05 |
| CCCN[C@H]1CCc2nc(N)sc2C1 [Pramipexole dihydrochloride monohydrate] | -0.655 |
| CCNC(=O)CCC/C=C\C[C@@H]1[C@@H](/C=C/[C@@H](O)CCc2ccccc2)[C@H](O)C[C@@H]1O [Bimatoprost] | 9.97 |
| CC(=O)Oc1cc2c(s1)CCN(C(C(=O)C1CC1)c1ccccc1F)C2 (stereo not drawn) [Prasugrel (Effient)] | -7.75 |
| Cc1ccnc2c1NC(=O)c1cccnc1N2C1CC1 [Nevirapine (Viramune)] | 9.64 |

| Structure (SMILES) | inhibition at 10 µM [%] |
| --- | --- |
| Oc1ncnc2[nH]ncc12 [Allopurinol (Zyloprim)] | 19.8 |
| CC1(C)O[C@H]2CC(=O)OC[C@]23[C@H]2CC[C@@]4(C)[C@H](c5ccoc5)OC(=O)[C@H]5O[C@]54[C@]2(C)C(=O)C[C@@H]13 [Limonin] | -3.17 |
| COc1ccc(-c2coc3cc(O)cc(O)c3c2=O)cc1 [Biochanin A (4-Methylgenistein)] | 3 |
| O=C1c2c(O)cc(O)cc2O[C@H](c2cc(O)c(O)c(O)c2)[C@H]1O [Dihydromyricetin (Ampeloptin)] | 21.4 |
| O=C(/C=C/c1ccc(O)cc1)c1ccc(O)cc1O [Isoliquiritigenin] | 5.56 |
| COc1cc(/C=C/C(=O)O)ccc1O [Fumalic acid (Ferulic acid)] | -0.686 |
| CC1(C)CC[C@]2(C(=O)O)CC[C@]3(C)C(=CC[C@@H]4[C@@]5(C)CC[C@H](O)C(C)(C)[C@@H]5CC[C@]43C)[C@@H]2C1 [Oleanolic Acid (Caryophyllin)] | -2 |
| CC(C)C(=O)Oc1ccc(CO)cc1[C@H](CCN(C(C)C)C(C)C)c1ccccc1 [Fesoterodine fumarate (Toviaz)] | -0.933 |
| CC(=O)SCC(Cc1ccccc1)C(=O)NCC(=O)OCc1ccccc1 (stereo not drawn) [Racecadotril (Acetorphan)] | -7.37 |
| Nc1cc(C(Cl)=C(Cl)Cl)c(S(N)(=O)=O)cc1S(N)(=O)=O [Clorsulon] | -1.66 |
| CC(=O)OCC(=O)[C@@]1(O)CC[C@H]2[C@@H]3CCC4=CC(=O)CC[C@]4(C)[C@H]3C(=O)C[C@@]21C [Cortisone acetate (Cortone)] | -0.736 |
| CC1COc2c(N3CCN(C)CC3)c(F)cc3c(=O)c(C(=O)O)cn1c23 (stereo not drawn) [Ofloxacin (Floxin)] | -0.567 |
| CCCc1nc2c(C)cc(-c3nc4ccccc4n3C)cc2n1Cc1ccc(-c2ccccc2C(=O)O)cc1 [Telmisartan (Micardis)] | 0.71 |
| COc1cc(C(C)=O)ccc1OCCCN1CCC(c2noc3cc(F)ccc23)CC1 [Iloperidone (Fanapt)] | 21.7 |
| CC(C[N+](C)(C)C)OC(N)=O (stereo not drawn) [Bethanechol chloride] | -1.35 |
| CC(C)=CCC[C@]1(C)C=Cc2c(O)c3c(c(CC=C(C)C)c2O1)O[C@]12C(=C[C@@H]4C[C@H]1C(C)(C)O[C@@]2(C/C=C(/C)C(=O)O)C4=O)C3=O [Gambogic Acid] | 14.8 |
| Nc1nc(Cl)nc2c1ncn2[C@H]1C[C@H](O)[C@@H](CO)O1 [Cladribine] | -1.65 |
| C[C@@H](O)[C@H]1C(=O)N2C(C(=O)O)=C(S[C@@H]3CN[C@H](CNS(N)(=O)=O)C3)[C@H](C)[C@H]12 [Doripenem Hydrate] | -0.0213 |
| CCN(CC)CC#CCOC(=O)C(O)(c1ccccc1)C1CCCCC1 (stereo not drawn) [Oxybutynin (Ditropan)] | 37.3 |
| CC(C)n1c(/C=C/[C@H](O)C[C@H](O)CC(=O)O)c(-c2ccc(F)cc2)c2ccccc21 (racemic) [Fluvastatin sodium (Lescol)] | -2.48 |
| CC[C@@]1(O)C(=O)OCc2c1cc1n(c2=O)Cc2cc3ccccc3nc2-1 [Camptothecin] | -13.4 |
| Cc1noc(NS(=O)(=O)c2ccc(N)cc2)c1C [Sulfisoxazole] | -0.221 |
| CCC1=C[C@@H]2CN(C1)Cc1c([nH]c3ccccc13)[C@@](C(=O)OC)(c1cc3c(cc1OC)N(C)[C@H]1[C@@](O)(C(=O)OC)[C@H](OC(C)=O)[C@]4(CC)C=CCN5CC[C@]31[C@@H]54)C2 [Vinorelbine (Navelbine)] | -1.98 |
| OC[C@H]1O[C@@H](OCCc2ccc(O)cc2)[C@H](O)[C@@H](O)[C@@H]1O [Salidroside (Rhodioloside)] | 11.2 |

Reference: publication PMC7489219 (Molecular Brain, 2020)
